In patent publication US20230024192A1, “Citrate-Functionalized Polymeric Surfactants Based Upon Alkyl Polyglucosides” (Colonial Chemical, Inc., priority 2019, published 2023):

Legend:
Zein = Zein Test, irritation potential of surfactants / cleansing formulations by amount of zein solubilized; design: species or system corn; conditions: anionic cleanser, FIG. 3
Experimental: Surfactants of the current invention were tested for their ability to reduce the irritation potential of cleansing formulations. We used the Zein Test [referenced in J. Surfact.
The Zein test is intended for determining the irritation potential of a surfactant or surfactant-based product. Zein, a corn protein similar to keratin present in the skin and hair, is insoluble in water unless it is denatured by an irritant. In this test, the irritant is a surfactant or surfactant-based product, and irritation potential is predicted by the amount of zein solubilized.

[1] = Salt curves, viscosity build in cleansing formulations (SLS- or AOS-based blends); assay type: physicochemical; conditions: incorporated into typical cleansing formulations with SLS or AOS, cocamidopropyl betaine, cocamide MEA; salt curves FIGS. 1 and 2
Experimental: The generalized cleansing formulations are shown in Table 1, where various anionic surfactants, or blends of anionic surfactants, were added to a betaine and an alkanolamide surfactant and water. The balance of the weight in these formulas is water. […] Salts curves were generated for both sulfate-free blends based on AOS, Sodium C14-16 Olefin Sulfonate (FIG. 2), as well as sodium lauryl sulfate-based blends (FIG. 1). The salt curves in FIG. 1 are for the following: 1) Sodium Lauryl Sulfate (SLS) alone: 2) Sodium Lauryl Sulfate:Water, 2:1; 3) Sodium Lauryl Sulfate:Disodium Laurylglucosides Hydroxypropyl Citrate 2:1; and 4) Sodium Lauryl Sulfate:Disodium Laurylglucosides Hydroxypropyl Citrate, 1:1. The salt curves in FIG. 2 are for the following: 1) Sodium C14-16 Olefin Sulfonate (AOS) alone: 2) Sodium C14-16 Olefin Sulfonate:Water, 2:1; 3) Sodium C14-16 Olefin Sulfonate:Disodium Laurylglucosides Hydroxypropyl Citrate, 2:1; and 4) Sodium C14-16 Olefin Sulfonate:Disodium Laurylglucosides Hydroxypropyl Citrate, 1:1. [table] […] Some formulations can achieve desired viscosity levels without any added salt, meeting the demand for that type of claim by some shampoo manufacturers.

viscosity build [1]: fast and high viscosity build
Substance: Disodium Laurylglucosides Hydroxypropyl Citrate
irritation potential in cleansing formulations (Zein Test) (Zein): effective at reducing irritation potential
